Assay results as given in patent US20220218725A1, “METHODS AND MATERIALS FOR TREATING CANCER” (Mayo Foundation for Medical Education and Research, priority 2019, published 2022).

Assays:
Hs 578T cells = experiment: Cell viability, Annexin V/PI assay; format: cell-based; conditions: Hs 578T (Breast cancer); 48 hours; KPT-330 0.1-1.0 μM, CS 1-3 mM, single agent or combination
Description: (§3) KPT-330 purchased from Selleckchem (cat no: S7252) was dissolved in DMSO while CS (Santa Cruz, Calif.S 2016-36-6), sodium salicylate (Sigma-Aldrich, cat no: S3007), acetyl salicylate (Sigma-Aldrich, cat no: CAS 50-78-2) was diluted in PBS. […] The concentration range of KPT-330 was 0.05-1.0 μM while CS was 1-3 mM were used for ex vivo treatment and incubation time ranged from 24 hours to 72 hours.
(§4) The viability assessment for cell lines and primary patients samples were conducted with the Annexin V/PI method.

BT-20 cells = experiment: Cell viability, Annexin V/PI assay; format: cell-based; conditions: BT-20 (Breast cancer); 48 hours; KPT-330 0.1-1.0 μM, CS 1-3 mM, single agent or combination
Description: as §3, §4

[1] = system: CLL primary patient samples; experiment: Viability of primary patient samples, Annexin V/PI assay; format: cell-based, human; conditions: TP53 deleted, 48 h, KPT-330 0.05-0.5 μM, CS 1-3 mM
Description: (§1) Primary patient samples were obtained. The mononuclear cells were obtained from bone marrow, spleen, peripheral blood and lymph nodes as follows. Freshly obtained tissue (lymph node, spleen, bone marrow) was placed in mesh screen and using a syringe plunger, the tissue was pressed into a petri dish. Samples were then rinsed through the screen using measured amounts of RPMI until all tissue has been pressed through. […] Subsequently the mononuclear cells were isolated via centrifugation in the presence of ficoll and this step was again repeated following washing the cells with RPMI media.
(§2) To isolate peripheral blood mononuclear cells (PBMCs), freshly obtained patient blood sample of patients were centrifuged in the present of ficoll and this step was repeated twice following washing the cells with PBS. Following isolating the mononuclear cells, the viability was assessed and ascertained proper viability above 80% prior to conduct respective experiments. Non-malignant cells were confirmed not to have a malignant condition by pathology review of the tissue.

[2] = system: DLBCL primary patient samples; experiment: as above; format: cell-based, human; conditions: 48 h, KPT-330 0.05-0.5 μM, CS 1-3 mM
Description: as §1, §2

[3] = system: Lymphoplasmacytic lymphoma primary patient sample; experiment: as above; format: cell-based, human; conditions: Lymphoplasmacytic lymphoma with IgG monoclonal gammopathy; 48 h; KPT-330 0.05-0.5 μM, CS 1-3 mM
Description: as §1, §2

[4] = system: MCL primary patient samples; experiment: as above; format: cell-based, human; conditions: 48 h, KPT-330 0.05-0.5 μM, CS 1-3 mM
Description: as §1, §2

[5] = system: MM/plasma cell leukemia primary patient samples; experiment: as above; format: cell-based, human; conditions: 48 h, KPT-330 0.05-0.5 μM, CS 1-3 mM
Description: as §1, §2

[6] = system: MZL primary patient samples; experiment: as above; format: cell-based, human; conditions: 48 h, KPT-330 0.05-0.5 μM, CS 1-3 mM
Description: as §1, §2

[7] = system: Peripheral T-cell lymphoma primary patient samples; experiment: as above; format: cell-based, human; conditions: 48 h, KPT-330 0.05-0.5 μM, CS 1-3 mM
Description: as §1, §2

[8] = system: T-cell Lymphoblastic leukemia primary patient sample; experiment: as above; format: cell-based, human; conditions: Relapsed T-cell Lymphoblastic leukemia; 48 h; KPT-330 0.05-0.5 μM, CS 1-3 mM
Description: as §1, §2

[9] = system: WM primary patient sample; experiment: as above; format: cell-based, human; conditions: 48 h, KPT-330 0.05-0.5 μM, CS 1-3 mM
Description: as §1, §2

[10] = system: CMML patient-derived bone marrow sample; experiment: Hematopoietic progenitor colony forming assay; format: cell-based, human; conditions: assessed by counting colony forming units in methyl cellulose media, KPT-330 0.05-0.5 μM, CS 1-3 mM
Description: CMML patient-derived bone marrow samples were first treated with ammonium chloride to deplete red blood cells, washed in RPMI, then plated at a final concentration of 5×10^4-2×10^5 cells/mL in addition to drug(s). This solution was immediately inoculated into methylcellulose (StemCell) formulated with recombinant cytokines to support the optimal growth of erythroid progenitor cells, granulocyte-macrophage progenitor cells, and multipotent granulocyte, erythroid, macrophage and megakaryocyte progenitor cells. Plates were incubated with respective treatment conditions at 37° C. and colonies were enumerated on day 10-14.

JeKo-1 cells = experiment: Mitotic index calculation; format: cell-based; conditions: 48 hours, light microscopy
Description: Following the incubation of respective time periods, cytospin slides were prepared and stained with Hema 3 staining on the many factors protocol. Subsequently the mitotic index was calculated by the number of mitoses evaluated in 10 high power fields (×400).

[11] = Relapsed CLL: Ibrutinib and Idalalisib resistant
[12] = Relapsed CLL: Ibrutinib resistent
[13] = Double expresser transformed from CLL/SLL
[14] = Double hit, replaced from RCHOP, ASCT and BR
[15] = NOS, single agent or combination
[16] = Relapsed MCL resistant to Ibrutinib
[17] = Kappa light chain myeloma/plasma cell leukemia with I(11; 14), standard risk
[18] = MM/plasma cell leukemia, Relapsed with high risk cytogenetics (sample of r32)
[19] = MM/plasma cell leukemia, Relapsed with high risk cytogenetics (sample of r33)
[20] = MM/plasma cell leukemia, Relapsed with high risk cytogenetics (sample of r34)
[21] = MM/plasma cell leukemia, Relapsed with high risk cytogenetics (sample of r38)
[22] = Relapsed splenic MZL (sample of r15)
[23] = Relapsed splenic MZL (sample of r16)
[24] = Relapsed splenic MZL (sample of r18)
[25] = Relapssd splenic MZL (sample of r17)
[26] = Relapsed Peripheral T-cell lymphoma (sample of r30)
[27] = Relapsed Peripheral T-cell lymphoma (sample of r31)

| SMILES | % viability normalized for respective controls (Hs 578T cells) | % viability normalized for respective controls (BT-20 cells) | % viability normalized for respective controls [1, 11] | % viability normalized for respective controls [1, 12] | % viability normalized for respective controls [2, 13] | % viability normalized for respective controls ([2]; Double expresser) | % viability normalized for respective controls ([2]; Double hit transformed from FL) | % viability normalized for respective controls [2, 14] | % viability normalized for respective controls [2, 15] | % viability normalized for respective controls [3] | % viability normalized for respective controls [4, 16] | % viability normalized for respective controls ([4]; Relapsed MCL) | % viability normalized for respective controls [5, 17] | % viability normalized for respective controls [5, 18] | % viability normalized for respective controls [5, 19] | % viability normalized for respective controls [5, 20] | % viability normalized for respective controls [5, 21] | % viability normalized for respective controls ([6]; Relapsed nodal MZL) | % viability normalized for respective controls [6, 22] | % viability normalized for respective controls [6, 23] | other results |
| --- | --- | --- | --- | --- | --- | --- | --- | --- | --- | --- | --- | --- | --- | --- | --- | --- | --- | --- | --- | --- | --- |
| O=C(/C=C\n1cnc(-c2cc(C(F)(F)F)cc(C(F)(F)F)c2)n1)NNc1cnccn1 [KPT-330, (Z)-3-[3-[3,5-bis (trifluoromethyl)phenyl]-1,2,4-triazol-1-yl]-N′-pyrazin-2-ylprop-2-enehydrazide] | 73% | 58% | 72% | 99% | 68% | 74% | 82% | 81% | 63% | 79% | 94% | 89% | 55% | 79% | 91% | 93% | 96% | 58% | 55% | 67% | % viability normalized for respective controls [6, 24]: 67%; % viability normalized for respective controls [6, 25]: 70%; % viability normalized for respective controls [7, 26]: 73%; % viability normalized for respective controls [7, 27]: 68%; % viability normalized for respective controls [8]: 70%; % viability normalized for respective controls [9]: 85%; % viability normalized for respective controls [10]: 56%; mitotic index (MI) (JeKo-1 cells): 153 /10 HPF |
| C[N+](C)(C)CCO.O=C([O-])c1ccccc1O [CS, choline salicylate] | 87% | 89% | 78% | 75% | 65% | 80% | 71% | 86% | 76% | 88% | 91% | 68% | 64% | 58% | 90% | 69% | 99% | 65% | 63% | 71% | % viability normalized for respective controls [6, 24]: 65%; % viability normalized for respective controls [6, 25]: 82%; % viability normalized for respective controls [7, 26]: 64%; % viability normalized for respective controls [7, 27]: 73%; % viability normalized for respective controls [8]: 82%; % viability normalized for respective controls [9]: 79%; % viability normalized for respective controls [10]: 53%; mitotic index (MI) (JeKo-1 cells): 166 /10 HPF |
